Measured values: PMC8955197, “Polyketide Derivatives from the Endophytic Fungus Phaeosphaeria sp. LF5 Isolated from Huperzia serrata and Their Acetylcholinesterase Inhibitory Activities” (Journal of Fungi, 2022)

molecular target: AChE (Homo sapiens, UniProt P22303); assay: biochemical; settings: mean ± SD of three parallel measurements; phosphate buffer pH 7.7, 25 °C; read-out: IC50 (µM), acetylcholinesterase inhibitory activity
Method: The assay was carried out in a 96-well microtiter plate reader. […] The mixture was incubated for 5 min at 25 °C. […] Percent inhibition was calculated through the following formula: (control absorbance–sample absorbance)/control absorbance × 100. The IC50 values were the means ± SD of three determinations.

Sequence of AChE (P22303 32-614): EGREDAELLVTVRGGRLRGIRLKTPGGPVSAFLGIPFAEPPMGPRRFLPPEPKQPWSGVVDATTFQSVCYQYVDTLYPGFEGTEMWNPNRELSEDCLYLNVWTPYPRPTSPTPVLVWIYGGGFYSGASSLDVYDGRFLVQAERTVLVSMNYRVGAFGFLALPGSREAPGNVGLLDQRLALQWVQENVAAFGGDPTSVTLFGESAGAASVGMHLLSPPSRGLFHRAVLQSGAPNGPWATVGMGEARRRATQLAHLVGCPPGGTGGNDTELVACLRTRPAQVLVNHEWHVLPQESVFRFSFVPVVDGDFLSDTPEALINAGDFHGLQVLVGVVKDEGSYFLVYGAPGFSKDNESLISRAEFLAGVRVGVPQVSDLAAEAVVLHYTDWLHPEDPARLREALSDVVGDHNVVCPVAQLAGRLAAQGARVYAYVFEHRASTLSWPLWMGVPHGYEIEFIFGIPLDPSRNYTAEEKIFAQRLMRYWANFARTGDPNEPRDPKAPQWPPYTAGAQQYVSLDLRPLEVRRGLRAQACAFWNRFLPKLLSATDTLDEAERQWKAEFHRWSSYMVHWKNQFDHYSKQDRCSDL

Q: For `COc1cc(O)cc2cc(C)oc(=O)c12` [Compound 10, 6-hydroxy-8-methoxy-3-methylisocoumarin], which IC50 is on record?
A: > 100 µM

Q: Which IC50 does the source give for `C/C(=C\C(=O)O)CCO` [Compound 5, E-Δ^2-anhydromevalonic acid] here?
A: > 100 µM

Q: With `C[C@@H](O)Cc1cc2cc(O)cc(O)c2c(=O)o1` [Compound 11, de-O-methyldiaporthin] as the molecule, how does the IC50 read?
A: 21.2 ± 1.53 µM

Q: How did the IC50 turn out when `CC1C=C(CC(=O)O)C(=O)O1` (centres unmarked) [Compound 2, 2-(5-methyl-2-oxo-2,5-dihydrofuran-3-yl)-acetic acid] was run?
A: > 100 µM

Q: How did the IC50 turn out when `CC1=CC(=O)OCC1` [Compound 6, 4-methyl-5,6-dihydropyren-2-one] was run?
A: > 100 µM

Q: How did the IC50 turn out when `COC(=O)CC1=CC(C)OC1=O` (centres unmarked) [Compound 3, methyl-2-(5-methyl-2-oxo-2,5-dihydrofuran-3-yl)-acetate] was run?
A: > 100 µM

Q: How did the IC50 turn out when `C[C@@H]1Cc2cc(O)cc(O)c2C(=O)O1` [Compound 8, (R)-6-hydroxymellein] was run?
A: > 100 µM

Q: `C[C@@H]1C=C(C[C@@H](O)[C@H](C)O)C(=O)O1` [Compound 4] was tested. Which IC50 did it give?
A: 6.26 ± 0.15 µM

Q: How did the IC50 turn out when `CC(O)C(O)c1cc2cc(O)cc(O)c2c(=O)o1` (stereo not drawn) [Compound 9, 6,8-dihydroxy-3-(1′R, 2′R-dihydroxypropyl)-isocoumarin] was run?
A: > 100 µM

Q: How did the IC50 turn out when `CC1C=C(CO)C(=O)O1` (centres unmarked) [Compound 1, 3-(hydroxymethyl)-5-methylfuran-2(5H)-one] was run?
A: > 100 µM

Q: With `Cc1cc(C(=O)O)cc(C(C)O)n1` (centres unmarked) [Compound 7, 2-(1-hydroxyethyl)-6-methylisonicotinic acid] as the molecule, how does the IC50 read?
A: > 100 µM
